Assay results published in PubChem BioAssay (NCI).
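Briefly, cells in 96-well plates were exposed to five compound concentrations for 48 h, and endpoints were estimated by linear interpolation. Definition used: TGI = concentration required for complete inhibition of growth.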

Experiments:
Experiment in all cases: DTP human tumour cell line panel, 48 h
786-0 renal = tested on: 786-0 renal
A498 renal = tested on: A498 renal
A549 NSCLC = tested on: A549 NSCLC
ACHN renal = tested on: ACHN renal
BT-549 breast = tested on: BT-549 breast
CAKI-1 renal = tested on: CAKI-1 renal
CCRF-CEM leukemia = tested on: CCRF-CEM leukemia
COLO 205 colon = tested on: COLO 205 colon
DU-145 prostate = tested on: DU-145 prostate
EKVX NSCLC = tested on: EKVX NSCLC
HCC-2998 colon = tested on: HCC-2998 colon
HCT-116 colon = tested on: HCT-116 colon
HCT-15 colon = tested on: HCT-15 colon
HL-60(TB) leukemia = tested on: HL-60(TB) leukemia
HOP-62 NSCLC = tested on: HOP-62 NSCLC
HOP-92 NSCLC = tested on: HOP-92 NSCLC
HS 578T breast = tested on: HS 578T breast
HT29 colon = tested on: HT29 colon
IGROV1 ovarian = tested on: IGROV1 ovarian
K-562 leukemia = tested on: K-562 leukemia
KM12 colon = tested on: KM12 colon
LOX IMVI melanoma = tested on: LOX IMVI melanoma
M14 melanoma = tested on: M14 melanoma
MALME-3M melanoma = tested on: MALME-3M melanoma
MCF7 breast = tested on: MCF7 breast
MDA-MB-231 breast = tested on: MDA-MB-231 breast
MDA-MB-435 = tested on: MDA-MB-435
MDA-N = tested on: MDA-N
MOLT-4 leukemia = tested on: MOLT-4 leukemia
NCI-H226 lung = tested on: NCI-H226 lung
NCI-H23 lung = tested on: NCI-H23 lung
NCI-H460 lung = tested on: NCI-H460 lung
NCI-H522 lung = tested on: NCI-H522 lung
NCI/ADR-RES ovarian = tested on: NCI/ADR-RES ovarian
OVCAR-3 ovarian = tested on: OVCAR-3 ovarian
OVCAR-4 ovarian = tested on: OVCAR-4 ovarian
OVCAR-5 ovarian = tested on: OVCAR-5 ovarian
OVCAR-8 ovarian = tested on: OVCAR-8 ovarian
PC-3 prostate = tested on: PC-3 prostate
RPMI-8226 leukemia = tested on: RPMI-8226 leukemia
RXF 393 renal = tested on: RXF 393 renal
SF-268 CNS = tested on: SF-268 CNS
SF-295 CNS = tested on: SF-295 CNS
SF-539 CNS = tested on: SF-539 CNS
SK-MEL-2 melanoma = tested on: SK-MEL-2 melanoma
SK-MEL-28 melanoma = tested on: SK-MEL-28 melanoma
SK-MEL-5 melanoma = tested on: SK-MEL-5 melanoma
SK-OV-3 ovarian = tested on: SK-OV-3 ovarian
SN12C renal = tested on: SN12C renal
SNB-19 CNS = tested on: SNB-19 CNS
SNB-75 CNS = tested on: SNB-75 CNS
SR leukemia = tested on: SR leukemia
SW-620 colon = tested on: SW-620 colon
T-47D breast = tested on: T-47D breast
TK-10 renal = tested on: TK-10 renal
U251 CNS = tested on: U251 CNS
UACC-257 melanoma = tested on: UACC-257 melanoma
UACC-62 melanoma = tested on: UACC-62 melanoma
UO-31 renal = tested on: UO-31 renal

[B]C(=O)NC(CC(C)C)C(=O)NCC(=O)NC1c2ccsc2C(=O)C1O (centres undefined) (tested in a mixture with another compound)
TGI (786-0 renal): > 100 µM | TGI (A498 renal): > 100 µM | TGI (A549 NSCLC): > 100 µM | TGI (ACHN renal): > 100 µM | TGI (BT-549 breast): > 100 µM | TGI (CAKI-1 renal): > 100 µM | TGI (CCRF-CEM leukemia): > 31.6 µM | TGI (COLO 205 colon): > 100 µM | TGI (DU-145 prostate): > 100 µM | TGI (EKVX NSCLC): > 100 µM | TGI (HCC-2998 colon): > 100 µM | TGI (HCT-116 colon): > 100 µM | TGI (HCT-15 colon): > 100 µM | TGI (HL-60(TB) leukemia): > 100 µM | TGI (HOP-62 NSCLC): > 100 µM | TGI (HOP-92 NSCLC): > 100 µM | TGI (HS 578T breast): > 100 µM | TGI (HT29 colon): > 100 µM | TGI (IGROV1 ovarian): > 100 µM | TGI (K-562 leukemia): > 31.6 µM | TGI (KM12 colon): > 100 µM | TGI (LOX IMVI melanoma): > 100 µM | TGI (M14 melanoma): > 100 µM | TGI (MALME-3M melanoma): > 100 µM | TGI (MCF7 breast): > 100 µM | TGI (MDA-MB-231 breast): > 100 µM | TGI (MDA-MB-435): > 100 µM | TGI (MDA-N): > 100 µM | TGI (MOLT-4 leukemia): > 100 µM | TGI (NCI-H226 lung): > 100 µM | TGI (NCI-H23 lung): > 100 µM | TGI (NCI-H460 lung): > 31.6 µM | TGI (NCI-H522 lung): > 100 µM | TGI (NCI/ADR-RES ovarian): > 100 µM | TGI (OVCAR-3 ovarian): > 100 µM | TGI (OVCAR-4 ovarian): > 100 µM | TGI (OVCAR-5 ovarian): > 100 µM | TGI (OVCAR-8 ovarian): > 100 µM | TGI (PC-3 prostate): > 100 µM | TGI (RPMI-8226 leukemia): > 100 µM | TGI (RXF 393 renal): > 100 µM | TGI (SF-268 CNS): > 100 µM | TGI (SF-295 CNS): > 100 µM | TGI (SF-539 CNS): > 100 µM | TGI (SK-MEL-2 melanoma): > 100 µM | TGI (SK-MEL-28 melanoma): > 100 µM | TGI (SK-MEL-5 melanoma): > 100 µM | TGI (SK-OV-3 ovarian): > 100 µM | TGI (SN12C renal): > 100 µM | TGI (SNB-19 CNS): > 100 µM | TGI (SNB-75 CNS): > 100 µM | TGI (SR leukemia): > 100 µM | TGI (SW-620 colon): > 100 µM | TGI (T-47D breast): > 100 µM | TGI (TK-10 renal): > 100 µM | TGI (U251 CNS): > 100 µM | TGI (UACC-257 melanoma): > 100 µM | TGI (UACC-62 melanoma): > 100 µM | TGI (UO-31 renal): > 100 µM
